Measurements reported in patent US8268874B2, “Anti-cancer compounds, synthesis thereof, and methods of using same” (University of Notre Dame du Lac, priority 2008, dated 2012).
Read-outs that look alike come from different tables or passages of the source.

What was measured:
[1] = tested on: human breast cancer cell line MCF-7; experiment: NCI anti-cancer drug screen, growth inhibition of MCF-7 cells; format: cell-based
Description: (§1) For additional details pertaining to the assay, see, for example, Shoemaker, R. H., The NCI60 Human Tumour Cell line Anticancer Drug Screen, Nature Reviews, 6: 813-823, 2006, the disclosure of which is hereby incorporated by reference in its entirety.
(§2) Briefly, the cell lines comprising the National Cancer Institute Anti-cancer Drug Screen panel were obtained and processed as described previously. After an initial acquisition, in vitro expansion was followed by cryopreservation of a large number of master stock samples, for serial rethawing at 20-passage intervals. The parental cells included the small cell lung carcinoma cell line UMCC-1, the human leukemia cell line HL-60, estrogen receptor-positive MCF7 and ZR-75B human breast carcinoma cells, and estrogen receptor-negative MDA-MB231 human breast carcinoma cells. The parental cells were grown in monolayers or in suspension in Eagle's minimum essential medium containing 10% fetal bovine serum, 2 mM L-glutamine, 100 units/ml penicillin, and 100 μg/ml streptomycin in 5% CO2 at 37° C.
(§3) The current version of COMPARE is configured to calculate pairwise correlations with the log10 of one of the specific National Cancer Institute cell line activity parameters GI50, TGI, or LC50. The GI50 is the National Cancer Institute designation for a time zero-corrected IC50 value and is defined as the concentration of an agent that causes a 50% growth inhibition. Thus, log10 (GI50 values) for a seed or probe compound is correlated with the corresponding data from each compound in a database.

[2] = tested on: human leukemia cell line HL-60; experiment: In vitro anti-cancer activity against HL-60 cells; format: cell-based; details: Table 1
Description: as §1, §2, §3

[3] = tested on: vincristine-resistant leukemia cell line, HL-60 VCR, that overexpresses p-glycoprotein; experiment: In vitro anti-cancer activity against HL-60 VCR cells; format: cell-based, human; details: Table 1, p-glycoprotein overexpressing
Description: as §1, §2, §3

M. tuberculosis H37Rv = experiment: In vitro anti-tuberculosis activity, standard GAST assay; format: cell-based, Mycobacterium tuberculosis; details: in words
PC-3 (Prostate) = experiment: NCI anti-cancer drug screen, growth inhibition of PC-3 cells; format: cell-based; details: Homo sapiens; for IC50: Table 5
Description: as §1, §2, §3
Various analogs of the oxazole triazole scaffold were prepared and tested for their anti-cancer activity in various cellular assays (testing was done as described previously).

RXF 393 (Renal) = experiment: NCI anti-cancer drug screen, growth inhibition of RXF 393 cells; format: cell-based; details: Homo sapiens, Table 5
Description: as §1, §2
(§4) The current version of COMPARE is configured to calculate pairwise correlations with the log10 of one of the specific National Cancer Institute cell line activity parameters GI50, TGI, or LC50. […]

CAKI-1 (Renal) = experiment: NCI anti-cancer drug screen, growth inhibition of CAKI-1 cells; format: cell-based; details: Homo sapiens, Table 5
Description: as §1, §2, §4

SR (Leukemia) = experiment: NCI anti-cancer drug screen, growth inhibition of SR cells; format: cell-based; details: Homo sapiens, Table 5
Description: as §1, §2, §4

[4] = tested on: multiple cell lines of leukemia; experiment: NCI assay, multiple leukemia cell lines (FIG. 2); format: cell-based, human; details: applied at nanomolar concentrations
Description: FIG. 2 illustrates the potent anti-cancer activity of various compounds disclosed herein in the NCI assay using multiple leukemia cell lines, in accordance with various embodiments.
as §1

[5] = tested on: multiple colon cancer cell lines; experiment: NCI assay, multiple colon cancer cell lines (FIG. 3); format: cell-based, human; details: applied at nanomolar concentrations
Description: FIG. 3 illustrates the potent anti-cancer activity of various compounds disclosed herein in the NCI assay using multiple colon cancer cell lines, in accordance with various embodiments.
as §1

cell cycle = experiment: Cell cycle arrest (FIG. 5); format: cell-based
Description: FIG. 5 illustrates cell cycle arrest showing G2/M-phase arrest in cells treated with 1,2,3-triazole 9c (ND-6732), in accordance with various embodiments.
Without being bound by theory, it is believed that the anti-cancer activity of various disclosed compounds disclosed herein is due to antimitotic activity.

[6] = Homo sapiens, MCF7, Table 2, SAR truncation of aryl ether moiety, read-out: MCF7 IC50
[7] = Homo sapiens, MCF7, Table 5, read-out: IC50 MCF-7 (Breast)
[8] = MCF7, Table 1, human breast cancer cell line MCF-7, read-out: IC50 MCF-7
[9] = Homo sapiens, MCF7, Table 3, SAR truncation of aryl carboxamide moiety, read-out: MCF7 IC50
[10] = Homo sapiens, MCF7, read-out: IC50 MCF-7 (Breast)

What does the source list for `COc1cc2c(cc1O)CC[C@@H]1[C@@H]2CC[C@]2(C)[C@@H](O)CC[C@@H]12` [2-methoxyestradiol]?
IC50 ([1]; Table 1, human breast cancer cell line MCF-7, read-out: IC50 MCF-7): 1300 nM; IC50 [2]: 9150 nM; IC50 [3]: 48000 nM

`O=C(OCc1ccccc1)[C@@H]1COC(c2ccccc2OCc2ccccc2)=N1` [Compound 2] was tested. Which anti-tuberculosis activity (M. tuberculosis H37Rv) did it give?
The anti-tuberculosis activity was “exhibited anti-tuberculosis activity with potency similar to that of Mycobactin S”.

With `COc1ccc(CNC(=O)c2coc(-c3cccc(Cl)c3)n2)cc1OC` [Compound 3] as the compound, how does the anti-tuberculosis activity (M. tuberculosis H37Rv) read?
Its anti-tuberculosis activity is “active against M. tuberculosis”.

For `C#CCNC(=O)c1coc(-c2ccccc2)n1` [Compound 8a], which IC50 [1, 6] is on record?
Its IC50 is over 20000 nM.

`O=C(NCc1cn(Cc2ccccc2)nn1)c1coc(-c2ccccc2)n1` [Compound 9a] was tested. Which IC50 [1, 6] did it give?
The IC50 was 4000 nM.

For `O=C(NCc1cn(Cc2cccc(Oc3ccccc3)c2)nn1)c1coc(-c2ccccc2)n1` [Compound 9c], which GI50 ([1]; Homo sapiens, MCF7) is on record?
Its GI50 is 302 nM.

What about the IC50 [1, 6] of the same compound?
The IC50 was 500 nM.

What about the IC50 [1, 7] of the same compound?
The IC50 was 302 nM.

And the IC50 [1, 8]?
The IC50 was 500 nM.

And the IC50 [2]?
The IC50 was 7900 nM.

And the IC50 ([3]; Homo sapiens, HL60/VCR)?
Its IC50 is 12200 nM.

And the GI50 (PC-3 (Prostate))?
The GI50 was 504 nM.

What about the IC50 (PC-3 (Prostate)) of the same compound?
Its IC50 is 504 nM.

What about the IC50 (RXF 393 (Renal)) of the same compound?
Its IC50 is 299 nM.

And the IC50 (CAKI-1 (Renal))?
Its IC50 is 392 nM.

What about the IC50 (SR (Leukemia)) of the same compound?
Its IC50 is 484 nM.

What about the “growth inhibition of multiple cell lines of leukemia” value [4] of the same compound?
Its value is at least 50%.

What about the “growth inhibition of multiple cell lines of colon cancer” value [5] of the same compound?
The value was at least 50%.

And the cell cycle arrest (cell cycle)?
The cell cycle arrest was “cell cycle arrest at the G2M phase of mitosis”.

How did the IC50 [1, 9] turn out when `O=C(NCc1cn(Cc2cccc(Oc3ccccc3)c2)nn1)c1ccccn1` [Compound 14] was run?
Its IC50 is 70 nM.

How did the IC50 [1, 9] turn out when `O=C(NCc1cn(Cc2cccc(Oc3ccccc3)c2)nn1)c1cocn1` [Compound 15] was run?
Its IC50 is 1000 nM.

`O=C(NCc1cn(Cc2cccc(Oc3ccccc3)c2)nn1)c1ccccc1` [Compound 16] was tested. Which IC50 [1, 9] did it give?
The IC50 was 200 nM.

`CC(=O)NCc1cn(Cc2cccc(Oc3ccccc3)c2)nn1` [Compound 17] was tested. Which IC50 [1, 9] did it give?
Its IC50 is 6000 nM.

What does the source list for `COc1ccc(-c2nc(C(=O)Nc3cn(Cc4ccc(Oc5ccccc5)cc4)nn3)co2)cc1` [ND-007887]?
IC50 [1, 7]: 937 nM; IC50 (PC-3 (Prostate)): 1250 nM

With `COc1ccc(-c2nc(CNCc3cn(Cc4ccc(Oc5ccccc5)cc4)nn3)co2)cc1` [ND-008169] as the compound, how does the IC50 [1, 7] read?
Its IC50 is 3000 nM.

And the IC50 (PC-3 (Prostate))?
Its IC50 is 10000 nM.

How did the IC50 [1, 7] turn out when `CCCCCCCCn1cc(CNCc2coc(-c3ccc(OC)cc3)n2)nn1` [ND-008171] was run?
The IC50 was 15000 nM.

What about the IC50 (PC-3 (Prostate)) of the same compound?
The IC50 was over 100000 nM.

Which results are given for `COc1ccc(-c2ccc(CNCc3cn(Cc4ccc(Oc5ccccc5)cc4)nn3)s2)cc1` [ND-008174]?
IC50 [1, 7]: 3000 nM; IC50 (PC-3 (Prostate)): 10000 nM

How did the IC50 [1, 10] turn out when `CC(C)(C)[Si](C)(C)Oc1cccc(Cn2cc(CNC(=O)c3coc(-c4ccc(Cl)cc4)n3)nn2)c1` [ND-008183] was run?
Its IC50 is 13000 nM.

And the IC50 (PC-3 (Prostate))?
Its IC50 is over 50000 nM.

Which IC50 [1, 7] does the source give for `O=C(NCc1cn(Cc2cccc(Oc3ccccc3)c2)nn1)c1coc(-c2ccc(Cl)cc2)n1` [ND-008186] here?
Its IC50 is 4000 nM.

And the IC50 (PC-3 (Prostate))?
The IC50 was 2400 nM.

Which IC50 [1, 7] does the source give for `Cc1ccc(Cn2cc(CNC(=O)c3coc(-c4ccc(C)cc4)n3)nn2)cc1` [ND-008465] here?
The IC50 was 8000 nM.

And the IC50 (PC-3 (Prostate))?
The IC50 was 20000 nM.

How did the IC50 [1, 7] turn out when `Cc1ccc(-c2nc(C(=O)NCc3cn(Cc4cccc(Oc5ccccc5)c4)nn3)co2)cc1` [ND-008467] was run?
Its IC50 is 300 nM.

And the IC50 (PC-3 (Prostate))?
The IC50 was 1000 nM.

With `Cc1ccc(-c2nc(C(=O)NCc3cn(Cc4cccc(O[Si](C)(C)C(C)(C)C)c4)nn3)co2)cc1` [ND-008468] as the compound, how does the IC50 [1, 10] read?
Its IC50 is 15000 nM.

What about the IC50 (PC-3 (Prostate)) of the same compound?
The IC50 was 20000 nM.

How did the IC50 [1, 7] turn out when `CCCCCCCCn1cc(CNC(=O)c2coc(-c3ccc(C)cc3)n2)nn1` [ND-008469] was run?
The IC50 was 20000 nM.

And the IC50 (PC-3 (Prostate))?
Its IC50 is over 20000 nM.

With `Cc1ccc(-c2nc(C(=O)NCc3cn(C45CC6CC(CC(C6)C4)C5)nn3)co2)cc1` [ND-008470] as the compound, how does the IC50 [1, 7] read?
Its IC50 is over 20000 nM.

What about the IC50 (PC-3 (Prostate)) of the same compound?
The IC50 was over 20000 nM.

What does the source list for `O=C(NCc1cn(C23CC4CC(CC(C4)C2)C3)nn1)c1coc(-c2ccc(Cl)cc2)n1` [ND-008471]?
IC50 [1, 7]: > 20000 nM; IC50 (PC-3 (Prostate)): > 20000 nM

For `CC(=O)NCc1cn(Cc2cccc(Oc3ccccc3)c2)nn1` [ND-008492], which IC50 [1, 7] is on record?
Its IC50 is 6000 nM.

What about the IC50 (PC-3 (Prostate)) of the same compound?
Its IC50 is 17000 nM.

What does the source list for `OCc1cn(Cc2cccc(Oc3ccccc3)c2)nn1` [ND-008493]?
IC50 [1, 7]: > 20000 nM; IC50 (PC-3 (Prostate)): > 20000 nM

Which results are given for `O=C(NCc1cn(Cc2cccc(Oc3ccccc3)c2)nn1)c1ccccn1` [ND-008504]?
IC50 [1, 7]: 150 nM; IC50 (PC-3 (Prostate)): 300 nM

Which results are given for `O=C(NCc1cn(Cc2cccc(Oc3ccccc3)c2)nn1)c1cocn1` [ND-008505]?
IC50 [1, 7]: 1000 nM; IC50 (PC-3 (Prostate)): 1000 nM

For `O=C(NCc1cn(Cc2cccc(Oc3ccccc3)c2)nn1)c1ccccc1` [ND-008506], which IC50 [1, 7] is on record?
The IC50 was 200 nM.

And the IC50 (PC-3 (Prostate))?
The IC50 was 500 nM.

Which IC50 [1, 8] does the source give for `CC[C@]1(O)C[C@H]2CN(CCc3c([nH]c4ccccc34)[C@@](C(=O)OC)(c3cc4c(cc3OC)N(C=O)[C@H]3[C@@](O)(C(=O)OC)[C@H](OC(C)=O)[C@]5(CC)C=CCN6CC[C@]43[C@@H]65)C2)C1` [vincristine] here?
Its IC50 is 200 nM.

And the IC50 [2]?
The IC50 was 570 nM.

What about the IC50 ([3]; Homo sapiens, HL60/VCR) of the same compound?
The IC50 was over 100000 nM.

With Mycobactin S [reference compound] as the compound, how does the anti-tuberculosis activity (M. tuberculosis H37Rv) read?
The anti-tuberculosis activity was “exhibits anti-tuberculosis activity”.
